What was measured:
Format in all cases: binding, mouse
[1] = tested on: monoclonal antibody Sol-129; assay: competitive inhibition ELISA (c-ELISA), monoclonal antibody Sol-129; settings: Sol-129 (IgG1); ± one standard deviation
Procedure: (§1) Five, 6 month old BALB/c mice were injected with 50 μl of the solanidine-KLH conjugate mixed 1:1 with Ribi adjuvant (Ribi Immunochem Research Inc., Hamilton, Mont.). The mice received half the dose intraperitoneally and half intramuscularly every other week for a total of three injections. One month later, and 4 days prior to fusion, a selected mouse was given an intraperitoneal injection of 50 μl of solanidine-KLHconjugate in sterile saline. The spleen was removed and the splenocytes fused with SP2/O myeloma cells as described by Stanker et al. (1986, J. Immunol., 136:4174-4180), the contents of which are incorporated by reference herein. The fused cells were plated over 30 96-well microculture plates previously coated with mouse peritoneal exudate cells (macrophage) and grown under conditions described by Elissalde et al. (1993, J. Agric. Food Chem., 41:2167-2171), the contents of which are also incorporated by reference herein.
(§2) db-ELISA. A modification of a direct-binding ELISA described by Stanker et al. (1993, J. Agric. Food Chem., 41:1332-1336), the contents of which are incorporated by reference herein, was used to screen the culture fluids from the growing hybridomas for antibodies to solanidine. Microtiter plates (Nunc Maxisorb, Roskilde, Denmark; or Costar high binding plates, Costar Corp., Wilmington, Mass.) were coated with SOL-BSA by addition of 100 μl/well of a 1 μg/ml solution of SOL-BSA in distilled water. The SOL-BSA was incubated in uncovered plates at 37° C. for 18 hr to evaporate the liquid and allow the SOL-BSA to coat the bottom of the microtiter wells. The "coated" plates were then stored in sealed plastic bags at 4° C. and used within 2 weeks. Nonreacted sites on the plates were blocked by adding 400 μl of a 3% solution of nonfat dry milk (NFDM) in assay buffer (0.1M Tris, 0.15M NaCl, 10 mg/ml nonfat dry milk, 0.001% Tween 20, 0.02% sodium azide) and incubating the plates at room temperature for 1 hr. The blocking solution was then discarded and 100 μl of the hybridoma supernatant(s) or anti-solanidine Mab (from ascites fluid) was added, and the plates incubated for 1 hr at 37° C. After incubation, the plates were washed with a solution of 0.05% TWEEN-20 in water, and peroxidase conjugated goat anti-mouse antiserum (Sigma Inc., St. Louis, Mo.), diluted 1:500 in assay buffer, was then added to each well. Following a second 1 hr incubation at 37° C., the plates were washed as described above. Finally, the substrate, 2,2'-azino-bis(ethylbenzthiazole-6-sulfonic acid) (ABTS), was added. Absorbance was measured at 405 nm and the resulting data analyzed by computer using an Excel (Microsoft, Redmond, Wash.) spreadsheet program.
(§3) c-ELISA. The competitive inhibition ELISA for solanidine and other glycoalkaloids was carried out as previously described for other compounds by Stanker et al. (1993, ibid). Briefly, to each well of an antigen (glycoalkaloid or aglycone) coated, non-fat-milk-blocked, microtiter plate prepared as described in the db-ELISA was added 100 μl of assay buffer. Competitors (free solanidine and other glycoalkaloids and aglycones, and four structurally related steroids cholesterol, digitonin, βsitosterol, and stigmasterol, shown in Table 1) dissolved in 100 μl of assay buffer were added to the microassay plate and serially diluted (a 2-fold series). Next, 100 μl of assay buffer containing a predetermined amount of anti-solanidine monoclonal antibody prepared above was added to each well. The amount of anti-alkaloid antibody added was the concentration (dilution from tissue culture supernatant) resulting in approximately 50% of maximum binding or signal in a direct-binding ELISA where no competitor was present. The plates were sealed with plastic wrap, incubated for 1 hr at 37° C., and then processed as described in the db-ELISA to detect bound antibody. […]

[2] = tested on: monoclonal antibody Sol-67; assay: competitive inhibition ELISA (c-ELISA), monoclonal antibody Sol-67; settings: Sol-67 (IgG1); ± one standard deviation
Procedure: as §1, §2, §3

[3] = tested on: monoclonal antibody Sol-54; assay: competitive inhibition ELISA (c-ELISA), monoclonal antibody Sol-54; settings: Sol-54 (IgG2a); ± one standard deviation
Procedure: as §1, §2, §3

[4] = tested on: monoclonal antibody Sol-55; assay: competitive inhibition ELISA (c-ELISA), monoclonal antibody Sol-55; settings: Sol-55 (IgG2a); ± one standard deviation
Procedure: as §1, §2, §3

[5] = tested on: monoclonal antibody Sol-71; assay: competitive inhibition ELISA (c-ELISA), monoclonal antibody Sol-71; settings: Sol-71 (IgG2a); ± one standard deviation
Procedure: as §1, §2, §3

[6] = tested on: monoclonal antibody Sol-59; assay: competitive inhibition ELISA (c-ELISA), monoclonal antibody Sol-59; settings: Sol-59 (IgG2a); ± one standard deviation
Procedure: as §1, §2, §3

[7] = tested on: eleven monoclonal antibodies; assay: competitive inhibition ELISA (c-ELISA), all eleven monoclonal antibodies; settings: in words
Procedure: as §1, §2
c-ELISA. […]

[8] = tested on: monoclonal antibody Sol-91; assay: competitive inhibition ELISA (c-ELISA), monoclonal antibody Sol-91; settings: Sol-91 (IgG2a); ± one standard deviation
Procedure: as §1, §2, §3

[9] = tested on: monoclonal antibody Sol-8; assay: competitive inhibition ELISA (c-ELISA), monoclonal antibody Sol-8; settings: Sol-8 (IgG2a); ± one standard deviation
Procedure: as §1, §2, §3

[10] = tested on: monoclonal antibody Sol-106; assay: competitive inhibition ELISA (c-ELISA), monoclonal antibody Sol-106; settings: Sol-106 (IgG2a); ± one standard deviation
Procedure: as §1, §2, §3

[11] = tested on: monoclonal antibody Sol-68; assay: competitive inhibition ELISA (c-ELISA), monoclonal antibody Sol-68; settings: Sol-68 (IgG1); ± one standard deviation
Procedure: as §1, §2, §3

| Compound | IC50 [1] | IC50 [2] | IC50 [3] | IC50 [4] | IC50 [5] | IC50 [6] | cross-reaction of the antibodies [7] | IC50 [8] | IC50 [9] | IC50 [10] | IC50 [11] |
| --- | --- | --- | --- | --- | --- | --- | --- | --- | --- | --- | --- |
| C[C@@H]1CC[C@@]2(OC1)O[C@H]1[C@@H](O)[C@H]3[C@@H]4CC[C@H]5C[C@@H](O[C@@H]6O[C@H](CO)[C@H](O[C@@H]7O[C@H](CO)[C@@H](O)[C@H](O[C@@H]8OC[C@@H](O)[C@H](O)[C@H]8O)[C@H]7O[C@@H]7O[C@H](CO)[C@H](O)[C@H](O[C@@H]8O[C@H](CO)[C@@H](O)[C@H](O)[C@H]8O)[C@H]7O)[C@H](O)[C@H]6O)[C@H](O)C[C@]5(C)[C@H]4CC[C@]3(C)[C@H]1[C@@H]2C [digitonin] | nc (no competition at 10,000 ppb) | nc (no competition at 10,000 ppb) | nc (no competition at 10,000 ppb) | nc (no competition at 10,000 ppb) | nc (no competition at 10,000 ppb) | nc (no competition at 10,000 ppb) | None of the eleven antibodies cross-reacted | nc (no competition at 10,000 ppb) | nc (no competition at 10,000 ppb) | nc (no competition at 10,000 ppb) | nc (no competition at 10,000 ppb) |
| CC[C@H](/C=C/[C@@H](C)[C@H]1CC[C@H]2[C@@H]3CC=C4C[C@@H](O)CC[C@]4(C)[C@H]3CC[C@]12C)C(C)C [stigmasterol] | nc (no competition at 10,000 ppb) | nc (no competition at 10,000 ppb) | nc (no competition at 10,000 ppb) | nc (no competition at 10,000 ppb) | nc (no competition at 10,000 ppb) | nc (no competition at 10,000 ppb) | None of the eleven antibodies cross-reacted | nc (no competition at 10,000 ppb) | nc (no competition at 10,000 ppb) | nc (no competition at 10,000 ppb) | nc (no competition at 10,000 ppb) |
| CC[C@H](CC[C@@H](C)[C@H]1CC[C@H]2[C@@H]3CC=C4C[C@@H](O)CC[C@]4(C)[C@H]3CC[C@]12C)C(C)C [β-sitosterol] | nc (no competition at 10,000 ppb) | nc (no competition at 10,000 ppb) | nc (no competition at 10,000 ppb) | nc (no competition at 10,000 ppb) | nc (no competition at 10,000 ppb) | nc (no competition at 10,000 ppb) | None of the eleven antibodies cross-reacted | nc (no competition at 10,000 ppb) | nc (no competition at 10,000 ppb) | nc (no competition at 10,000 ppb) | nc (no competition at 10,000 ppb) |
